Results on one molecule are retold here after US20180147175A1, “COMPOSITIONS AND METHODS FOR TREATMENT OF MOVEMENT DISORDERS” (ULTRAGENYX PHARMACEUTICAL INC., priority 2015, published 2018).

Series [1] concerns brain response to cortical activation. Briefly: Functional 31P-NMR spectroscopy (f-MRS) of brain, Pi/PCr ratio during visual activation. It counts as in vivo, human. On the procedure: Functional ^31P-NMR spectroscopy (f-MRS) was performed at 3 T at the end of each study phase in patients >15 years old (n=5). Data were collected for 4 minutes at rest, 8 minutes during visual activation, 8 minutes after stimulation, and analyzed as described (Adanyeguh et al., 2015, Neurology 84: 490-495 and Mochel et al., 2012, Mov Disord. 27: 907-910). The ratio of Pi/PCr was calculated to determine the brain response to cortical activation.
(§1) Paired t-tests were used for plasma analyses before and after treatment. For clinical parameters, Friedman tests were used to test the global hypothesis that all study phases were equal. If significant, Wilcoxon signed-rank tests were applied for pair-wise phase comparisons with an alpha of 0.05. For the Pi/PCr ratio, repeated measures ANOVA were used to test the global hypothesis that all time points—rest, activation and recovery—were equal. If significant, paired t-tests were applied for pair-wise time comparisons with an alpha of 0.05.

The subject of series [2] is GLUT1-DS patients with non-epileptic paroxysmal manifestations. Briefly: Open-label pilot study in GLUT1-DS patients: paroxysmal events diary and clinical scales. It counts as in vivo, human.
Excerpt: This example describes an open-label pilot study with four phases of 2 months each (baseline, treatment […], and resumption of treatment) in eight GLUT1-DS patients (7-47 years old) with non-epileptic paroxysmal manifestations.
Participants were enrolled in an interventional clinical protocol. Four children and four adults with GLUT1-DS were enrolled. […] All patients were on a normal diet prior to their enrollment. As noted above, the study was divided into four phases of 2 months each (baseline, treatment, withdrawal, and resumption of treatment). A trained dietitian determined patients' caloric intake and adapted the daily menus so the diets remained isocaloric when triheptanoin was introduced.
A comprehensive diary was kept for each patient to record all motor and non-motor paroxysmal events—including dystonia, tremor, speech disorder, stiffness, paresis, headaches, confusion, and lethargy. At each visit, patients were evaluated with a six minute walk test (6MWT), a nine-hole pegboard test (NHPT), the clinical global impression-improvement scale (CGI-I) and a fatigue severity scale (KFFS or visual analogue scale for patients <15 years old). Blood samples were collected after an overnight fast for standard analyses, and the measurement of plasma C3-carnitine and C5-ketone bodies (Mochel et al., 2005, Molecular Genetics and Metabolism 84: 305-312).
as §1

“Also recorded” adds a separate entry of the source.

Turning to `CCCCCCC(=O)OCC(COC(=O)CCCCCC)OC(=O)CCCCCC` [triheptanoin], in series [1] (after 2 months on triheptanoin, ANOVA p=0.014, patients >15 years, n=5), the f-MRS bioenergetics profile entry is “corrected; also recorded: normalized”. The f-MRS profile entry in series [1] (after treatment withdrawal) was “came back abnormal”. For the same molecule, the tolerability entry in series [2] (1 g/kg/day oral, all patients) is given as “well tolerated”. Also, the paroxysmal manifestations entry in series [2] (after treatment was resumed) was “dropped significantly”. The “non-epileptic paroxysmal manifestations (FIG. 1)” value in series [2] (treated 2 months and on resumption, p<0.05) is “significant reduction”. In addition, the “average number of dystonic events” value in series [2] (treated 2 months, 1 g/kg/day oral, n=6, baseline 16 (±19, 1-54)) was 2; in series [2] (withdrawal phase, 2 months) it was 13. Moreover, the “average number of paroxysmal manifestations” value was 3 (±3, 0-7) in series [2] (treated 2 months, 1 g/kg/day oral, n=6, baseline average 31 (±28, 10-85), p=0.028) and 24 in series [2] (withdrawal phase, 2 months, p=0.043). Further, the “performance during the 6MWT and NHPT” value in series [2] (treatment phase) is “unchanged”. Besides, the CGI-I scale entry in series [2] (treatment phase, all patients) is reported as “much improved”; in series [2] (withdrawal phase, five out of six patients), “much worse”. The fatigue score result in series [2] (treatment phase, did not reach significance) is “tended to improve”; in series [2] (withdrawal phase), “worsened”.
